Measurements published in publication PMC11243320, “Tailoring Fibroblast-Activation Protein Targeting for Theranostics: A Comparative Preclinical Evaluation of the ^68Ga- and ^177Lu-Labeled Monomeric and Dimeric Fibroblast-Activation Protein Inhibitors DOTA.SA.FAPi and DOTAGA.(SA.FAPi)2” (Molecules, 2024).

Test system: U87MG tumor-bearing mice
Assay: Ex vivo biodistribution of 68Ga-labeled radiotracers in U87MG xenografts
Method: U87MG and PC3 tumor-bearing mice: Female athymic BALB/c (6 weeks/16–20 g) and male athymic BALB/c nude mice (6 weeks/20–25 g) were implanted with U87MG or PC3 cells (5 × 10^6/100 µL PBS) into their right shoulder, respectively. The animals were used for biodistribution and PET/SPECT/CT imaging studies (Animal License No: BE98/2021).
Ten pmol (0.08–0.1 MBq) of the radiotracers in 100 µL of NaCl 0.9% were injected intravenously into the tail vein of U87MG and PC3 tumor-bearing mice and biodistribution studies were conducted at 1, 2, and 3 h after injection.
Saturation Binding Studies […]
The radioactivity of the culture medium, the receptor bound , the internalized and the externalized fractions were measured in a γ -counter. The externalized fraction of radioactivity was ex-pressed as the percentage of the total internalized amount.
[68Ga]Ga -DOTA.SA.FAPi and [ 68Ga]Ga -DOTAGA.(SA.FAPi) 2
Ten pmol ( 0.08 –0.1 MBq) of [68Ga]Ga -monomer and [ 68Ga]Ga -dimer in 100 µ L of NaCl 0.9% were injected intravenously into the tail vein of U87MG or PC3 tumor bearing mice . The PC3 tumor-bearing mice were used between the 15th and 17th day after the xenograft implantation and the size was 281 ± 75 mm3. The U87MG tumor-bearing mice were used between the 7th and 9th day after the implantation and the size was 210 ± 34 mm3. Animals were terminally anesthetized by intraperitoneal injection of an overdose of pento-barbital natrium (150 mg/kg; Streuli Pharma SA, Uznach, Switzerland) at 1, 2 and 3 h after injection of the radiotracers. The organs of interest were dissected and weighed, and the radioactivity in the tissue samples […]
was counted in a γ-counter. Biodistribution data are given as the percent of injected activity per gram of tissue (% IA/g) and as means ± SD (n = 4). […]
each radiotracer along with 20 nmol of UAMC1110 (total injected volume: 100 µL) and biodistribution stud-ies were performed 2 h after injection.
[177Lu]Lu-DOTA.SA.FAPi and [177Lu]Lu-DOTAGA.(SA.FAPi)2
Ten pmol (0.06-0.08 MBq) of [177Lu]Lu-monomer and [177Lu]Lu-dimer in 100 µL of NaCl 0.9% were injected intravenously into the tail vein of PC3 tumor-bearing mice. The PC3 tumor-bearing mice were used between the 15th and 17th day after the xenograft implantation and its size was 281 ± 75 mm3. Animals were terminally anesthetized by intraperitoneal injection of an overdose of pentobarbital natrium (150 mg/kg; Streuli Pharma SA, Uznach, Switzerland) 1, 4, 24 and 48 h after the injection of [177Lu]Lu-DOTA.SA.FAPi and at 4, 24, 48, 72 and 96 h after the injection of [177Lu]Lu-DOTAGA.(SA.FAPi)2. The organs of interest were dissected and weighed, and the radioactivity in the tissue samples was counted in a γ-counter. The biodistribution data are given as the percent of injected activity per gram of tissue (% IA/g) and as means ± SD (n = 4). […]
blood pools or if they were necrotic. Both tumor types were “clean” without extended vascularization; there […]
Small Animal Imaging Studies
PET images were obtained after injection of 200 pmol of [68Ga]Ga-DOTA.SA.FAPi and [68Ga]Ga-DOT-AGA.(SA.FAPi)2 (1.0–1.6 MBq/100 μL) into U87MG or PC3 xenografts at 1, 2 and 3 h after injection. Static imaging was acquired for a time period between 10 and 45 min at 1, 2 and 3 h post injection, respectively.
To visualize the extent of FAP-specific tumor uptake, PET/CT blocking studies were performed as described above, and static scans were obtained for 30 min 2 h after the injection of the radiotracer along with the blocking agent (20 nmol).
PET images were corrected for gallium-68 decay and reconstructed with 12 iterations of the maximum a posteriori (MAP) algorithm using a voxel size of 0.25 mm. No correction was applied for attenuation. In addition, a point spread function iterative deconvolution was applied. The images were normalized, filtered using a Gaussian 3D algorithm with a 1.3 mm isotropic kernel and generated using PMOD software. The CT was carried out using step and shoot mode and employed 45 kVp and 400 uA as settings. The images […]

[1] = 2 h blocking (20 nmol UAMC1110)

N#C[C@@H]1CC(F)(F)CN1C(=O)CNC(=O)c1ccnc2ccc(OCCCCNc3c(NCCNC(=O)CN4CCN(CC(=O)[O-])CCN(CC(=O)[O-])CCN(CC(=O)[O-])CC4)c(=O)c3=O)cc12.[68Ga+3] [[^68Ga]Ga-DOTA.SA.FAPi]
Biodistribution Blood (1 h): 13.4 ± 0.2 % IA/g
Biodistribution Bone (1 h): 2.1 ± 0.2 % IA/g
Biodistribution Heart (1 h): 4.9 ± 0.6 % IA/g
Biodistribution Intestine (1 h): 2.9 ± 0.5 % IA/g
Biodistribution Kidney (1 h): 3.5 ± 0.7 % IA/g
Biodistribution Liver (1 h): 3.2 ± 0.4 % IA/g
Biodistribution Lung (1 h): 3.2 ± 1.7 % IA/g
Biodistribution Muscle (1 h): 2.6 ± 1.4 % IA/g
Biodistribution Pancreas (1 h): 9.7 ± 2.7 % IA/g
Biodistribution Spleen (1 h): 2.3 ± 0.4 % IA/g
Biodistribution Stomach (1 h): 2.1 ± 0.6 % IA/g
Biodistribution U87MG-Tumor (1 h): 6.5 ± 0.7 % IA/g
Tumor/Blood ratio (1 h): 0.5 ± 0.03
Tumor/Liver ratio (1 h): 2.0 ± 0.3
Tumor/Muscle ratio (1 h): 2.3 ± 0.7
Tumor/Pancreas ratio (1 h): 0.7 ± 0.2
Biodistribution Blood (2 h): 8.5 ± 1.5 % IA/g
Biodistribution Bone (2 h): 1.3 ± 0.2 % IA/g
Biodistribution Heart (2 h): 3.1 ± 0.9 % IA/g
Biodistribution Intestine (2 h): 3.2 ± 0.7 % IA/g
Biodistribution Kidney (2 h): 2.7 ± 0.6 % IA/g
Biodistribution Liver (2 h): 3.1 ± 0.9 % IA/g
Biodistribution Lung (2 h): 2.2 ± 1.0 % IA/g
Biodistribution Muscle (2 h): 2.8 ± 1.1 % IA/g
Biodistribution Pancreas (2 h): 10.5 ± 2.8 % IA/g
Biodistribution Spleen (2 h): 1.6 ± 0.5 % IA/g
Biodistribution Stomach (2 h): 2.0 ± 0.5 % IA/g
Biodistribution U87MG-Tumor (2 h): 5.2 ± 1.4 % IA/g
Tumor/Blood ratio (2 h): 0.7 ± 0.3
Tumor/Liver ratio (2 h): 1.7 ± 0.5
Tumor/Muscle ratio (2 h): 1.9 ± 1.5
Tumor/Pancreas ratio (2 h): 0.5 ± 0.2
Biodistribution Blood [1]: 0.5 ± 0.1 % IA/g
Biodistribution Bone [1]: 1.7 ± 0.6 % IA/g
Biodistribution Heart [1]: 0.7 ± 0.3 % IA/g
Biodistribution Intestine [1]: 1.3 ± 0.1 % IA/g
Biodistribution Kidney [1]: 2.5 ± 0.8 % IA/g
Biodistribution Liver [1]: 0.3 ± 0.03 % IA/g
Biodistribution Lung [1]: 1.1 ± 0.2 % IA/g
Biodistribution Muscle [1]: 1.4 ± 0.8 % IA/g
Biodistribution Pancreas [1]: 0.6 ± 0.4 % IA/g
Biodistribution Spleen [1]: 0.7 ± 0.3 % IA/g
Biodistribution Stomach [1]: 0.7 ± 0.4 % IA/g
Biodistribution U87MG-Tumor [1]: 1.1 ± 0.8 % IA/g
Biodistribution Blood (3 h): 6.2 ± 0.5 % IA/g
Biodistribution Bone (3 h): 3.0 ± 1.6 % IA/g
Biodistribution Heart (3 h): 3.7 ± 0.7 % IA/g
Biodistribution Intestine (3 h): 3.5 ± 0.7 % IA/g
Biodistribution Kidney (3 h): 3.4 ± 0.3 % IA/g
Biodistribution Liver (3 h): 3.9 ± 0.3 % IA/g
Biodistribution Lung (3 h): 3.1 ± 1.0 % IA/g
Biodistribution Muscle (3 h): 3.1 ± 0.9 % IA/g
Biodistribution Pancreas (3 h): 8.7 ± 1.3 % IA/g
Biodistribution Spleen (3 h): 2.8 ± 1.0 % IA/g
Biodistribution Stomach (3 h): 2.2 ± 0.5 % IA/g
Biodistribution U87MG-Tumor (3 h): 4.9 ± 1.0 % IA/g
Tumor/Blood ratio (3 h): 0.8 ± 0.3
Tumor/Liver ratio (3 h): 1.3 ± 0.5
Tumor/Muscle ratio (3 h): 1.7 ± 1.2
Tumor/Pancreas ratio (3 h): 0.6 ± 0.3
